Measurements from patent US20240287076A1, “COMPOUNDS FOR TARGETING DEGRADATION OF BRUTON'S TYROSINE KINASE” (BIOGEN MA INC., priority 2021, published 2024).

Molecular target: T1, BTK (Homo sapiens, UniProt Q06187)
T1 construct: The GM01501.3 cell line endogenously expresses BTK with a HiBiT fusion tag via CRISPR knock-in at its C-terminal region; endogenous in cells; host or cells: GM01501.3 (GM01501 cells engineered by CRISPR knock-in of HiBiT at the BTK locus)
Assay: BTK degradation assay using the HiBiT Method (Nano-Glo HiBiT Lytic Assay, GM01501.3 cells)
Format: cell-based
Conditions: HiBiT Degradation on GM01501.3 BTK @ 6 hours
Outline: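 Degradation read-out: HiBiT luminescence after lytic reagent addition, giving DC50. Compounds dosed from 10 μM in 11 half-log steps (duplicate) onto GM01501.3 cells, whose endogenous BTK carries a C-terminal HiBiT knock-in tag; 6 h exposure, 37 °C, 5% CO2.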

T1 sequence (Q06187 whole entry, the tested form may be a part): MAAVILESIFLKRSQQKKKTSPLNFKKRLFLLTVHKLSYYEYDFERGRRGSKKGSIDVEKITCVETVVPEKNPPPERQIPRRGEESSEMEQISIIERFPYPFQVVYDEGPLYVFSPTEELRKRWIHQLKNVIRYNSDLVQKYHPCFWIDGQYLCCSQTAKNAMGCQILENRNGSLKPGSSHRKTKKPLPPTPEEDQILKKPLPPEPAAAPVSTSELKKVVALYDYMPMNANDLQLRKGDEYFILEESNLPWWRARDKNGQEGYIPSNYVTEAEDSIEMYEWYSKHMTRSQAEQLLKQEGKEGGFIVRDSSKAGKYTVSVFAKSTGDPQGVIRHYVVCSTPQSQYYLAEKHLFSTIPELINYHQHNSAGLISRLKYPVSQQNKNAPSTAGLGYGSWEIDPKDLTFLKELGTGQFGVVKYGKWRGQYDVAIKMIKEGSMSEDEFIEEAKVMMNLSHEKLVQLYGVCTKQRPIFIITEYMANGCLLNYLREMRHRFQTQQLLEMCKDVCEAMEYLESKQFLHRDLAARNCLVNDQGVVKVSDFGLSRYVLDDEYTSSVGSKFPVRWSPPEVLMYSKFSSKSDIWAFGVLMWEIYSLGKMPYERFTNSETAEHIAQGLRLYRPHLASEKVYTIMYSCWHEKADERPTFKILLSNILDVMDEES

| SMILES | DC50 [nM] |
| --- | --- |
| Cc1cc(-c2ncnn3cc(CCCCc4ccc(-c5ccc(C6CCC(=O)NC6=O)cc5)cc4)cc23)ccc1CNC(=O)c1noc(C(C)(C)C)n1 (stereo not drawn) [Example 151, 5-tert-butyl-N-[[4-[6-[4-[4-[4-(2,6-dioxo-3-piperidyl)phenyl]phenyl]butyl]pyrrolo[2,1-f][1,2,4]triazin-4-yl]-2-methyl-phenyl]methyl]-1,2,4-oxadiazole-3-carboxamide] | 100 to 500 |
| Cc1cc(-c2ccnc3sc(-c4ccc(CN5CCC(c6ccc(NC7CCC(=O)NC7=O)cc6)CC5)cc4)cc23)ccc1CNC(=O)c1noc(C(C)(C)C)n1 (stereo not drawn) [Example 157, 5-tert-butyl-N-[[4-[2-[4-[[4-[4-[(2,6-dioxo-3-piperidyl)amino]phenyl]-1-piperidyl]methyl]phenyl]thieno[2,3-b]pyridin-4-yl]-2-methyl-phenyl]methyl]-1,2,4-oxadiazole-3-carboxamide] | 100 to 500 |
| Cc1cc(-c2ccnc3sc(CCCCN4CCC(c5ccc(NC6CCC(=O)NC6=O)cc5)CC4)cc23)ccc1CNC(=O)c1noc(C(C)(C)C)n1 (stereo not drawn) [Example 158, 5-tert-butyl-N-[[4-[2-[4-[4-[4-[(2,6-dioxo-3-piperidyl)amino]phenyl]-1-piperidyl]butyl]thieno[2,3-b]pyridin-4-yl]-2-methyl-phenyl]methyl]-1,2,4-oxadiazole-3-carboxamide] | 100 to 500 |
| Cc1cc(-c2ccnc3nn(-c4ccc(CN5CCC(c6ccc(NC7CCC(=O)NC7=O)cc6)CC5)cc4)cc23)ccc1CNC(=O)c1noc(C(C)(C)C)n1 (stereo not drawn) [Example 159, 5-tert-butyl-N-[[4-[2-[4-[[4-[4-[(2,6-dioxo-3-piperidyl)amino]phenyl]-1-piperidyl]methyl]phenyl]pyrazolo[3,4-b]pyridin-4-yl]-2-methyl-phenyl]methyl]-1,2,4-oxadiazole-3-carboxamide] | 100 to 500 |
| Cc1cc(-c2ccnc3nn(CCCCN4CCC(c5ccc(NC6CCC(=O)NC6=O)cc5)CC4)cc23)ccc1CNC(=O)c1noc(C(C)(C)C)n1 (stereo not drawn) [Example 160, 5-tert-butyl-N-[[4-[2-[4-[4-[4-[(2,6-dioxo-3-piperidyl)amino]phenyl]-1-piperidyl]butyl]pyrazolo[3,4-b]pyridin-4-yl]-2-methyl-phenyl]methyl]-1,2,4-oxadiazole-3-carboxamide] | > 1000 |
| Cn1nc(N2CCC(=O)NC2=O)c2ccc(C3CCN(Cc4ccc(-c5cc6nccc(-c7ccc(CNC(=O)c8noc(C(C)(C)C)n8)c(F)c7)n6n5)cc4)CC3)cc21 [Example 164, 5-tert-butyl-N-[[4-[2-[4-[[4-[3-(2,4-dioxohexahydropyrimidin-1-yl)-1-methyl-indazol-6-yl]-1-piperidyl]methyl]phenyl]pyrazolo[1,5-a]pyrimidin-7-yl]-2-fluoro-phenyl]methyl]-1,2,4-oxadiazole-3-carboxamide] | < 100 |
| Cn1nc(N2CCC(=O)NC2=O)c2ccc(C3CCN(Cc4ccc(-c5cc6nccc(-c7ccc(CNC(=O)N8CC(OC(C)(C)C)C8)c(F)c7)n6n5)cc4)CC3)cc21 [Example 165, 3-tert-butoxy-N-[[4-[2-[4-[[4-[3-(2,4-dioxohexahydropyrimidin-1-yl)-1-methyl-indazol-6-yl]-1-piperidyl]methyl]phenyl]pyrazolo[1,5-a]pyrimidin-7-yl]-2-fluoro-phenyl]methyl]azetidine-1-carboxamide] | < 100 |

Now from value to compound:

| DC50 [nM] | SMILES |
| --- | --- |
| < 100 | Cc1c(NC(=O)c2cc3c(s2)CCCC3)cc(F)cc1-c1ncnn2cc(-c3ccc(CN4CCC(c5ccc(NC6CCC(=O)NC6=O)cc5)CC4)cc3)cc12 (stereo not drawn) [Example 152, N-(3-(6-(4-((4-(4-((2,6-dioxopiperidin-3-yl)amino)phenyl)piperidin-1-yl)methyl)phenyl)pyrrolo[2,1-f][1,2,4]triazin-4-yl)-5-fluoro-2-methylphenyl)-4,5,6,7-tetrahydrobenzo[b]thiophene-2-carboxamide] |
| < 100 | Cc1c(NC(=O)c2ccc(C(C)(C)O)cc2)cc(F)cc1-c1ncnn2cc(-c3ccc(CN4CCC(c5ccc(NC6CCC(=O)NC6=O)cc5)CC4)cc3)cc12 (stereo not drawn) [Example 153, N-[3-[6-[4-[[4-[4-[(2,6-dioxo-3-piperidyl)amino]phenyl]-1-piperidyl]methyl]phenyl]pyrrolo[2,1-f][1,2,4]triazin-4-yl]-5-fluoro-2-methyl-phenyl]-4-(1-hydroxy-1-methyl-ethyl)benzamide] |
| < 100 | Cc1cc(-c2ccnn3cc(-c4ccc(CN5CCC(c6ccc(NC7CCC(=O)NC7=O)cc6)CC5)cc4)cc23)ccc1CNC(=O)c1noc(C(C)(C)C)n1 (stereo not drawn) [Example 154, 5-tert-butyl-N-[[4-[6-[4-[[4-[4-[(2,6-dioxo-3-piperidyl)amino]phenyl]-1-piperidyl]methyl]phenyl]pyrrolo[1,2-b]pyridazin-4-yl]-2-methyl-phenyl]methyl]-1,2,4-oxadiazole-3-carboxamide] |
| < 100 | Cc1cc(-c2ccnn3cc(CCN4CCC(c5ccc(NC6CCC(=O)NC6=O)cc5)CC4)cc23)ccc1CNC(=O)c1noc(C(C)(C)C)n1 (stereo not drawn) [Example 155, 5-tert-butyl-N-[[4-[6-[2-[4-[4-[(2,6-dioxo-3-piperidyl)amino]phenyl]-1-piperidyl]ethyl]pyrrolo[1,2-b]pyridazin-4-yl]-2-methyl-phenyl]methyl]-1,2,4-oxadiazole-3-carboxamide] |
| < 100 | Cc1cc(-c2ccnn3cc(CCCCN4CCC(c5ccc(NC6CCC(=O)NC6=O)cc5)CC4)cc23)ccc1CNC(=O)c1noc(C(C)(C)C)n1 (stereo not drawn) [Example 156, 5-tert-butyl-N-[[4-[6-[4-[4-[4-[(2,6-dioxo-3-piperidyl)amino]phenyl]-1-piperidyl]butyl]pyrrolo[1,2-b]pyridazin-4-yl]-2-methyl-phenyl]methyl]-1,2,4-oxadiazole-3-carboxamide] |
| < 100 | Cc1cc(-c2ccnc3[nH]c(-c4ccc(CN5CCC(c6ccc(NC7CCC(=O)NC7=O)cc6)CC5)cc4)cc23)ccc1CNC(=O)c1noc(C(C)(C)C)n1 (stereo not drawn) [Example 161, 5-tert-butyl-N-[[4-[2-[4-[[4-[4-[(2,6-dioxo-3-piperidyl)amino]phenyl]-1-piperidyl]methyl]phenyl]-1H-pyrrolo[2,3-b]pyridin-4-yl]-2-methyl-phenyl]methyl]-1,2,4-oxadiazole-3-carboxamide] |
| < 100 | Cc1cc(-c2ccnc3cc(-c4ccc(CN5CCC(c6ccc(NC7CCC(=O)NC7=O)cc6)CC5)cc4)nn23)ccc1CNC(=O)c1noc(C(C)(C)C)n1 (stereo not drawn) [Example 162, 5-tert-butyl-N-[[4-[2-[4-[[4-[4-[(2,6-dioxo-3-piperidyl)amino]phenyl]-1-piperidyl]methyl]phenyl]pyrazolo[1,5-a]pyrimidin-7-yl]-2-methyl-phenyl]methyl]-1,2,4-oxadiazole-3-carboxamide] |
| < 100 | Cc1cc(-c2ccnc3cc(CCCCN4CCC(c5ccc(NC6CCC(=O)NC6=O)cc5)CC4)nn23)ccc1CNC(=O)c1noc(C(C)(C)C)n1 (stereo not drawn) [Example 163, 5-tert-butyl-N-[[4-[2-[4-[4-[4-[(2,6-dioxo-3-piperidyl)amino]phenyl]-1-piperidyl]butyl]pyrazolo[1,5-a]pyrimidin-7-yl]-2-methyl-phenyl]methyl]-1,2,4-oxadiazole-3-carboxamide] |
